Results taken from the supplement of paper PMC10307832.

Columns and labels:
Experiment in all cases: relative viability (nuclei count vs DMSO), 5 days (fraction); higher = more cells survive
Etoposide + Navitoclax = compound: COc1cc([C@@H]2c3cc4c(cc3[C@@H](O[C@@H]3O[C@@H]5CO[C@@H](C)O[C@H]5[C@H](O)[C@H]3O)[C@H]3COC(=O)[C@H]23)OCO4)cc(OC)c1O [Etoposide] + CC1(C)CCC(c2ccc(Cl)cc2)=C(CN2CCN(c3ccc(C(=O)NS(=O)(=O)c4ccc(N[C@H](CCN5CCOCC5)CSc5ccccc5)c(S(=O)(=O)C(F)(F)F)c4)cc3)CC2)C1 [Navitoclax] (partner 0.5 µM)
Summary of the method: (§1)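 Relative viability divides the nuclei count in treated wells by that in vehicle wells. Lung cancer cell lines were seeded in 1536-well plates, dosed by pin tool the next day, and fixed and stained after 5 days in one step with final 0.05% Triton X-100, 1% formaldehyde and 1 ug/ml Hoechst. Dosing was a single drug or a fixed anchor-drug dose plus five library-drug doses (not always all listed) in √10 steps, and values are medians of duplicate plates imaged at 4×.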

Etoposide + Linsitinib = compound: COc1cc([C@@H]2c3cc4c(cc3[C@@H](O[C@@H]3O[C@@H]5CO[C@@H](C)O[C@H]5[C@H](O)[C@H]3O)[C@H]3COC(=O)[C@H]23)OCO4)cc(OC)c1O [Etoposide] + C[C@]1(O)C[C@@H](c2nc(-c3ccc4ccc(-c5ccccc5)nc4c3)c3c(N)nccn32)C1 [Linsitinib] (partner 1 µM)
Summary of the method: as §1

Bleomycin + OSI-027 = compound: CC1=C(N=C(N=C1N)[C@H](CC(=O)N)NC[C@@H](C(=O)N)N)C(=O)N[C@@H]([C@H](C2=CN=CN2)OC3C(C(C(C(O3)CO)O)O)OC4C(C(C(C(O4)CO)O)OC(=O)N)O)C(=O)N[C@H](C)[C@H]([C@H](C)C(=O)N[C@@H]([C@@H](C)O)C(=O)NCCC5=NC(=CS5)C6=NC(=CS6)C(=O)NCCC[S+](C)C)O [Bleomycin] + COc1cccc2cc(-c3nc([C@H]4CC[C@H](C(=O)O)CC4)n4ncnc(N)c34)[nH]c12 [OSI-027] (partner 0.5 µM); conditions: main component drawn
Summary of the method: as §1

Bleomycin + Vorinostat = compound: CC1=C(N=C(N=C1N)[C@H](CC(=O)N)NC[C@@H](C(=O)N)N)C(=O)N[C@@H]([C@H](C2=CN=CN2)OC3C(C(C(C(O3)CO)O)O)OC4C(C(C(C(O4)CO)O)OC(=O)N)O)C(=O)N[C@H](C)[C@H]([C@H](C)C(=O)N[C@@H]([C@@H](C)O)C(=O)NCCC5=NC(=CS5)C6=NC(=CS6)C(=O)NCCC[S+](C)C)O [Bleomycin] + O=C(CCCCCCC(=O)Nc1ccccc1)NO [Vorinostat] (partner 1 µM); conditions: main component drawn
Summary of the method: as §1

Cell Line | relative viability (Etoposide + Navitoclax; first compound 0.01 µM) | relative viability (Etoposide + Navitoclax; first compound 0.03162 µM) | relative viability (Etoposide + Navitoclax; first compound 0.1 µM) | relative viability (Etoposide + Navitoclax; first compound 0.3162 µM) | relative viability (Etoposide + Navitoclax; first compound 1 µM) | relative viability (Etoposide + Linsitinib; first compound 0.01 µM) | relative viability (Etoposide + Linsitinib; first compound 0.03162 µM) | relative viability (Etoposide + Linsitinib; first compound 0.1 µM) | relative viability (Etoposide + Linsitinib; first compound 0.3162 µM) | relative viability (Etoposide + Linsitinib; first compound 1 µM) | relative viability (Bleomycin + OSI-027; first compound 0.01 µM) | relative viability (Bleomycin + OSI-027; first compound 0.03162 µM) | relative viability (Bleomycin + OSI-027; first compound 0.1 µM) | relative viability (Bleomycin + OSI-027; first compound 0.3162 µM) | relative viability (Bleomycin + OSI-027; first compound 1 µM) | relative viability (Bleomycin + Vorinostat; first compound 0.01 µM) | relative viability (Bleomycin + Vorinostat; first compound 0.03162 µM) | relative viability (Bleomycin + Vorinostat; first compound 0.1 µM) | relative viability (Bleomycin + Vorinostat; first compound 0.3162 µM) | relative viability (Bleomycin + Vorinostat; first compound 1 µM)
Calu-6 | 0.883 | 0.722 | 0.828 | 0.418 | 0.213 | 0.914 | 1.01 | 0.819 | 0.758 | 0.39 | – | – | – | – | – | – | – | – | – | –
ChaGo-K-1 | 1.11 | 0.956 | 0.755 | 0.391 | 0.274 | – | – | – | – | – | 0.46 | 0.536 | 0.5 | 0.302 | 0.179 | 0.512 | 0.526 | 0.483 | 0.303 | 0.279
EBC-1 | 0.319 | 0.41 | 0.254 | 0.378 | 0.225 | 0.903 | 0.942 | 0.349 | 0.788 | 0.466 | – | – | – | – | – | – | – | – | – | –
EKVX | 0.892 | 0.983 | 0.759 | 0.446 | 0.251 | 0.979 | 0.978 | 0.805 | 0.712 | 0.399 | 0.636 | 0.711 | 0.598 | 0.398 | 0.387 | 0.724 | 0.611 | 0.607 | 0.366 | 0.411
EMC-BAC-2 | 1.08 | 1.05 | 0.83 | 0.297 | 0.161 | 0.719 | 0.803 | 0.58 | 0.273 | 0.186 | 0.298 | 0.326 | 0.304 | 0.257 | 0.159 | – | 0.472 | 0.36 | 0.28 | 0.18
EPLC-272H | 1.22 | 1.25 | 0.71 | 0.962 | 0.436 | 1.29 | 1.12 | 0.693 | 1.14 | 0.504 | 0.258 | 0.257 | 0.21 | 0.147 | 0.149 | 0.296 | 0.323 | 0.223 | 0.12 | 0.0952
H3255 | 0.538 | 0.556 | 0.334 | 0.348 | 0.14 | 0.872 | 1.11 | 0.815 | 0.713 | 0.336 | 0.524 | 0.6 | 0.504 | 0.53 | 0.429 | 0.737 | 0.891 | 0.538 | 0.682 | 0.363
HARA | 1.11 | 1.16 | 1.17 | 0.864 | 0.337 | 0.892 | 1.15 | 1.04 | 0.738 | 0.182 | 0.401 | 0.505 | 0.454 | 0.3 | 0.176 | 0.458 | 0.469 | 0.317 | 0.258 | 0.173
